Assay results from patent US6197535A, “Methods for purifying and assaying a conus γ-carboxylase” (University of Utah Research Foundation, priority 1999, dated 2001).

Tested on: Conus γ-glutamyl carboxylase (Conus radiatus venom duct microsomes)
Format: biochemical
Conditions: for Km: read-out: apparent Km

| Substance | Km | enhancement of carboxylation of E.Con-G | enhancement of carboxylation of FLEEL | inhibition of carboxylation of -10.Pro-E.Con-G | IC50 (read-out: apparent IC50) |
| --- | --- | --- | --- | --- | --- |
| GEEELQENQELIREKSN-NH2 [E.Con-G] | 3400 µM |  |  |  |  |
| GKDRLTQMKRILKQRGNKAR-GEEELY-NH2 [wild type substrate] | 40 µM |  |  |  |  |
| GKDRLTQMKRILKQRGNKAR [Pro (-20 to -1)] |  | ~ 25% | 40% | is an inhibitor | 490 µM |
